Here are results for 22 molecules from patent US10865208B2, “ATG7 inhibitors and the uses thereof” (Millennium Pharmaceuticals, Inc., priority 2016, dated 2020).

The target of the assay is recombinant human His-ATG7 enzyme (Homo sapiens (Human), UniProt O95352). As to the kind of experiment: ATG7 Enzyme Assay (HTRF/FRET, ATG3-GST and Flag-Gabarap). It counts as biochemical. Conditions: for inhibition at 0.123 µM: Concentration 0.123 μM; for inhibition at 0.111 µM: Concentration 0.111 μM. The method, boiled down:
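HTRF read-out after 2 h at 24° C, using Eu-cryptate anti-Flag and XL-APC anti-GST antibodies in an EDTA stop buffer. The preceding 105 min, 24° C reaction (pH 7.5) held 10 μM ATP, 5 nM each ATG3-GST and Flag-Gabarap, and 0.15 nM human His-ATG7. Values are IC50 or percent inhibition at one concentration.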

As usually defined, the IC50 is the concentration that inhibits the measured activity by half. For orientation: inhibition means the change of the read-out against control, counted positive when it falls.

Chain of recombinant human His-ATG7 enzyme (O95352 whole entry): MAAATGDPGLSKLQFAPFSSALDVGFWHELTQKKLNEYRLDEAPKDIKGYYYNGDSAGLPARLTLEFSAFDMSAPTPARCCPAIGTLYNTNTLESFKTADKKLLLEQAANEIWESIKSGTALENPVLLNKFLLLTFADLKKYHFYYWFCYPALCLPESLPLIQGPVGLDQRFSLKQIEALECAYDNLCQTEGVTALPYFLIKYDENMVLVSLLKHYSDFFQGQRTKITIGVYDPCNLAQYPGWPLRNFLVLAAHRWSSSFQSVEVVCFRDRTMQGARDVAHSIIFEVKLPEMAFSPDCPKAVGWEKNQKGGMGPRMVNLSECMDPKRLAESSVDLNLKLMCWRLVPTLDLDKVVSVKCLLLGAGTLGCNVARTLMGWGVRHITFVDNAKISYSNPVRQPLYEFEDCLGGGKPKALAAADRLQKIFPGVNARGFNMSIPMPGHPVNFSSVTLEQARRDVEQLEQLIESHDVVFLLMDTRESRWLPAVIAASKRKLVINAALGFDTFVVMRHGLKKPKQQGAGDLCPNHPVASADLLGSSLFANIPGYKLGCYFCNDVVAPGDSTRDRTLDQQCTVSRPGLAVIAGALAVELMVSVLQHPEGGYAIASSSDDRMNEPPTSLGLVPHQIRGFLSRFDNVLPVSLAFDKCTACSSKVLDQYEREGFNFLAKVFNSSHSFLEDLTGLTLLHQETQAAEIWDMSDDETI

For `CC(O)CSc1nn([C@@H]2O[C@H](COS(N)(=O)=O)[C@@H](O)[C@H]2O)c2ncnc(N)c12` (single isomer, unassigned) [Compound I-55b, [(2R,3S,4R,5R)-5-(4-amino-3-{[(2R)-2-hydroxypropyl]sulfanyl}-1H-pyrazolo[3,4-d]pyrimidin-1-yl)-3,4-dihydroxytetrahydrofuran-2-yl]methyl sulfamate or [(2R,3S,4R,5R)-5-(4-amino-3-{[(2S)-2-hydroxypropyl]sulfanyl}-1H-pyrazolo[3,4-d]pyrimidin-1-yl)-3,4-dihydroxytetrahydrofuran-2-yl]methyl Sulfamate], the half-maximal inhibitory concentration (IC50) was in the range of 50 to 100 nM. The inhibition at 0.123 µM (read-out: Percent Inhibition) turned out to be 68%.

In the case of `COCCSc1nn([C@@H]2O[C@H](COS(N)(=O)=O)[C@@H](O)[C@H]2O)c2ncnc(N)c12` [Compound I-35, [(2R,3S,4R,5R)-5-{4-amino-3-[(2-methoxyethyl)sulfanyl]-1H-pyrazolo[3,4-d]pyrimidin-1-yl}-3,4-dihydroxytetrahydrofuran-2-yl]methyl sulfamate], the IC50 lay in the range of 20 to 50 nM. In addition, the inhibition at 0.123 µM (read-out: Percent Inhibition) turned out to be 72%.

For the molecule `CSc1nn([C@@H]2O[C@@H](COS(N)(=O)=O)[C@@H](O)[C@H]2O)c2ncnc(N)c12` [Compound I-94, {(2S,3S,4R,5R)-5-[4-amino-3-(methylsulfanyl)-1H-pyrazolo[3,4-d]pyrimidin-1-yl]-3,4-dihydroxytetrahydrofuran-2-yl}methyl Sulfamate], the IC50 is 100 to 500 nM. Also, where the note is “read-out: Percent Inhibition”, the inhibition at 0.111 µM amounted to 28%.

In the case of `Nc1ncnc2c1c(Sc1ccc(F)cc1)nn2[C@H]1C[C@H](O)[C@@H](COS(N)(=O)=O)O1` [Compound I-187, [(2R,3S,5R)-5-{4-amino-3-[(4-fluorophenyl)sulfanyl]-1H-pyrazolo[3,4-d]pyrimidin-1-yl}-3-hydroxytetrahydrofuran-2-yl]methyl sulfamate], the concentration for half-maximal inhibition (IC50) lay in the range of 50 to 100 nM. Also, for the setting “read-out: Percent Inhibition”, the inhibition at 0.111 µM came out at 56%.

`C#CCSc1nn([C@@H]2O[C@H](COS(N)(=O)=O)[C@@H](O)[C@H]2O)c2ncnc(N)c12` [Compound I-43, {(2R,3S,4R,5R)-5-[4-amino-3-(prop-2-yn-1-ylsulfanyl)-1H-pyrazolo[3,4-d]pyrimidin-1-yl]-3,4-dihydroxytetrahydrofuran-2-yl}methyl sulfamate]: the IC50 was 20 to 50 nM. Further, the inhibition at 0.123 µM (read-out: Percent Inhibition) is 75%.

Consider `Nc1ncnc2c1c(SCc1ccccc1)nn2[C@@H]1O[C@H](COS(N)(=O)=O)[C@@H](O)[C@@H]1F` [Compound I-155, {(2R,3R,4S,5R)-5-[4-amino-3-(benzylsulfanyl)-1H-pyrazolo[3,4-d]pyrimidin-1-yl]-4-fluoro-3-hydroxytetrahydrofuran-2-yl}methyl sulfamate], for which the half-inhibitory concentration (IC50) was in the range of 20 to 50 nM. Moreover, the inhibition at 0.123 µM (read-out: Percent Inhibition) stood at 75%.

In the case of `Cc1occc1Sc1nn([C@@H]2O[C@H](COS(N)(=O)=O)[C@@H](O)[C@@H]2F)c2ncnc(N)c12` [Compound I-100, [(2R,3R,4S,5R)-5-{4-amino-3-[(2-methyl-3-furyl)sulfanyl]-1H-pyrazolo[3,4-d]pyrimidin-1-yl}-4-fluoro-3-hydroxytetrahydrofuran-2-yl]methyl sulfamate], the half-maximal inhibitory concentration (IC50) lay in the range of 100 to 500 nM. The inhibition at 0.111 µM (read-out: Percent Inhibition) was 50%.

As to `CC(C)Sc1nn([C@H]2C[C@H](O)[C@@H](COS(N)(=O)=O)O2)c2ncnc(N)c12` [Compound I-181, {(2R,3S,5R)-5-[4-amino-3-(isopropylsulfanyl)-1H-pyrazolo[3,4-d]pyrimidin-1-yl]-3-hydroxytetrahydrofuran-2-yl}methyl Sulfamate], the half-inhibitory concentration (IC50) lay within 20 to 50 nM. Under “read-out: Percent Inhibition”, the inhibition at 0.123 µM was 81%.

On to `Nc1ncnc2c1c(SC(F)(F)F)nn2[C@@H]1O[C@H](COS(N)(=O)=O)[C@@H](O)[C@@H]1F` [Compound I-142, [(2R,3R,4S,5R)-5-{4-amino-3-[(trifluoromethyl)sulfanyl]-1H-pyrazolo[3,4-d]pyrimidin-1-yl}-4-fluoro-3-hydroxytetrahydrofuran-2-yl]methyl sulfamate], for which the IC50 fell in the range of 50 to 100 nM. In addition, where the note is “read-out: Percent Inhibition”, the inhibition at 0.111 µM worked out at 57%.

Take `Cn1cnc(Sc2nn([C@@H]3O[C@H](COS(N)(=O)=O)[C@@H](O)[C@@H]3F)c3ncnc(N)c23)c1` [Compound I-137, [(2R,3R,4S,5R)-5-{4-amino-3-[(1-methyl-1H-imidazol-4-yl)sulfanyl]-1H-pyrazolo[3,4-d]pyrimidin-1-yl}-4-fluoro-3-hydroxytetrahydrofuran-2-yl]methyl sulfamate]: the half-maximal inhibitory concentration (IC50) fell in the range of 20 to 50 nM. The inhibition at 0.111 µM (read-out: Percent Inhibition) was 80%.

On to `Nc1ncnc2c1c(Sc1ccc(C(F)(F)F)cc1)nn2[C@@H]1O[C@H](COS(N)(=O)=O)[C@@H](O)[C@@H]1F` [Compound I-132, [(2R,3R,4S,5R)-5-(4-amino-3-{[4-(trifluoromethyl)phenyl]sulfanyl}-1H-pyrazolo[3,4-d]pyrimidin-1-yl)-4-fluoro-3-hydroxytetrahydrofuran-2-yl]methyl sulfamate], for which the half-maximal inhibitory concentration (IC50) was in the range of 50 to 100 nM. Besides, the inhibition at 0.111 µM (read-out: Percent Inhibition) was 60%.

Consider `Nc1ncnc2c1c(Sc1nccs1)nn2[C@H]1C[C@H](O)[C@@H](COS(N)(=O)=O)O1` [Compound I-174, {(2R,3S,5R)-5-[4-amino-3-(1,3-thiazol-2-ylsulfanyl)-1H-pyrazolo[3,4-d]pyrimidin-1-yl]-3-hydroxytetrahydrofuran-2-yl}methyl sulfamate], for which the half-maximal inhibitory concentration (IC50) is 20 to 50 nM. Besides, the inhibition at 0.111 µM (read-out: Percent Inhibition) amounted to 73%.

For the molecule `CC(C)[C@@H](C)Sc1nn([C@@H]2O[C@H](COS(N)(=O)=O)[C@@H](O)[C@@H]2F)c2ncnc(N)c12` [Compound I-129, [(2R,3R,4S,5R)-5-(4-amino-3-{[(2R)-3-methylbutan-2-yl]sulfanyl}-1H-pyrazolo[3,4-d]pyrimidin-1-yl)-4-fluoro-3-hydroxytetrahydrofuran-2-yl]methyl sulfamate], the half-maximal inhibitory concentration (IC50) was 100 to 500 nM. The inhibition at 0.111 µM (read-out: Percent Inhibition) was 48%.

For the molecule `Nc1ncnc2c1c(SC1CCCC1)nn2[C@@H]1O[C@H](COS(N)(=O)=O)[C@@H](O)[C@@H]1F` [Compound I-103, {(2R,3R,4S,5R)-5-[4-amino-3-(cyclopentylsulfanyl)-1H-pyrazolo[3,4-d]pyrimidin-1-yl]-4-fluoro-3-hydroxytetrahydrofuran-2-yl}methyl sulfamate], the IC50 was below 20 nM. Further, the inhibition at 0.111 µM (read-out: Percent Inhibition) is 84%.

`Nc1ncnc2c1c(Sc1cccnc1)nn2[C@@H]1O[C@H](COS(N)(=O)=O)[C@@H](O)[C@@H]1F` [Compound I-138, {(2R,3R,4S,5R)-5-[4-amino-3-(pyridin-3-ylsulfanyl)-1H-pyrazolo[3,4-d]pyrimidin-1-yl]-4-fluoro-3-hydroxytetrahydrofuran-2-yl}methyl sulfamate]: the IC50 fell in the range of 50 to 100 nM. The inhibition at 0.111 µM (read-out: Percent Inhibition) came to 64%.

For the molecule `CC(C)Sc1nn([C@@H]2O[C@H](COS(N)(=O)=O)[C@@H](O)[C@@H]2F)c2ncnc(N)c12` [Compound I-139, {(2R,3R,4S,5R)-5-[4-amino-3-(isopropylsulfanyl)-1H-pyrazolo[3,4-d]pyrimidin-1-yl]-4-fluoro-3-hydroxytetrahydrofuran-2-yl}methyl Sulfamate], the IC50 was in the range of 20 to 50 nM. Besides, the inhibition at 0.111 µM (read-out: Percent Inhibition) is 84%.

On to `Nc1ncnc2c1c(Sc1ccc3c(c1)CCC3)nn2[C@H]1C[C@H](O)[C@@H](COS(N)(=O)=O)O1` [Compound I-160, {(2R,3S,5R)-5-[4-amino-3-(2,3-dihydro-1H-inden-5-ylsulfanyl)-1H-pyrazolo[3,4-d]pyrimidin-1-yl]-3-hydroxytetrahydrofuran-2-yl}methyl Sulfamate], for which the IC50 is 50 to 100 nM. Moreover, the inhibition at 0.111 µM (read-out: Percent Inhibition) worked out at 62%.

On to `CC#Cc1nn([C@@H]2O[C@H](COS(N)(=O)=O)[C@@H](O)[C@H]2O)c2ncnc(N)c12` [Compound I-14, {(2R,3S,4R,5R)-5-[4-amino-3-(prop-1-yn-1-yl)-1H-pyrazolo[3,4-d]pyrimidin-1-yl]-3,4-dihydroxytetrahydrofuran-2-yl}methyl Sulfamate], for which the half-inhibitory concentration (IC50) lay in the range of 100 to 500 nM. For the same molecule, where the note is “Concentration 0.069 μM, read-out: Percent Inhibition”, the inhibition at 0.069 µM was 17%.

Turning to `Nc1ncnc2c1c(-c1ccn[nH]1)nn2[C@@H]1O[C@H](COS(N)(=O)=O)[C@@H](O)[C@H]1O` [Compound I-68, {(2R,3S,4R,5R)-5-[4-amino-3-(1H-pyrazol-5-yl)-1H-pyrazolo[3,4-d]pyrimidin-1-yl]-3,4-dihydroxytetrahydrofuran-2-yl}methyl sulfamate], the IC50 is above 500 nM. In addition, for the setting “read-out: Percent Inhibition”, the inhibition at 0.123 µM was 10%.

As to `Nc1ncnc2c1c(SC1CCCCC1O)nn2[C@@H]1O[C@H](COS(N)(=O)=O)[C@@H](O)[C@H]1O` (mixture of isomers) [Compound I-47, [(2R,3S,4R,5R)-5-(4-amino-3-{[(1R,2R)-2-hydroxycyclohexyl]sulfanyl}-1H-pyrazolo[3,4-d]pyrimidin-1-yl)-3,4-dihydroxytetrahydrofuran-2-yl]methyl Sulfamate and [(2R,3S,4R,5R)-5-(4-amino-3-{[(1S,2S)-2-hydroxycyclohexyl]sulfanyl}-1H-pyrazolo[3,4-d]pyrimidin-1-yl)-3,4-dihydroxytetrahydrofuran-2-yl]methyl Sulfamate], the IC50 lay within 100 to 500 nM. Also, under “read-out: Percent Inhibition”, the inhibition at 0.123 µM was determined as 48%.

For the molecule `COc1cccc(Sc2nn([C@H]3C[C@H](O)[C@@H](COS(N)(=O)=O)O3)c3ncnc(N)c23)c1` [Compound I-199, [(2R,3S,5R)-5-{4-amino-3-[(3-methoxyphenyl)sulfanyl]-1H-pyrazolo[3,4-d]pyrimidin-1-yl}-3-hydroxytetrahydrofuran-2-yl]methyl sulfamate], the IC50 lay within 20 to 50 nM. The inhibition at 0.111 µM (read-out: Percent Inhibition) is 74%.

For the molecule `CSc1nn([C@H]2C[C@H](O)[C@@H](COS(N)(=O)=O)O2)c2ncnc(N)c12` [Compound I-200, {(2R,3S,5R)-5-[4-amino-3-(methylsulfanyl)-1H-pyrazolo[3,4-d]pyrimidin-1-yl]-3-hydroxytetrahydrofuran-2-yl}methyl Sulfamate], the IC50 lay within 20 to 50 nM. In addition, the inhibition at 0.111 µM (read-out: Percent Inhibition) stood at 70%.
